Test results as given in patent US4462819A, “Urease inhibited urea based fertilizer compositions containing organo boron acid compounds” (Allied Corporation, priority 1983, dated 1984).

Legend:
urease [1] = test: Evaluation of urease inhibiting activity in soil, Test A (test compound and urea applied together); type: biochemical; design: key: A=excellent inhibition; B=partial inhibition; C=no inhibition; conditions: 800 μg test compound and 42.8 mg urea in 20 g air-dry soil (Cazenovia sandy loam pH 7.2), 25° C., 3 days; remaining urea, relative to control without test compound
Method: Certain selected organo boron acid compounds were evaluated for urease inhibiting activity. The tests were run in a New York soil (Cazenovia sandy loam pH 7.2). Test A evaluations (run in triplicate) consisted of applying 800 μg of test compound in 5 mL water and 42.8 mg urea in 1 mL water to 20 g air-dry soil in a glass bottle. The bottle was capped with perforated aluminum foil and incubated at 25° C. for 3 days prior to extraction with a 100 mL 2M KCL solution containing 0.5 mg phenylmercuric acetate. The extracts were then analyzed for remaining urea using an autoanalyzer.

urease [2] = test: Evaluation of urease inhibiting activity in soil, Test B (test compound incubated in soil 3 days before urea was added); type: biochemical; design: key: A=excellent inhibition; B=partial inhibition; C=no inhibition; conditions: 800 μg test compound incubated in 20 g soil (Cazenovia sandy loam pH 7.2) for 3 days before urea was added; analysis 3 days after urea addition; relative to control without test compound

SMILES	% INHIBITION (TEST A) (urease [1])	% INHIBITION (TEST B) (urease [2])
Nc1ccc(B(O)O)cc1 [XII, 4-Aminobenzeneboronic Acid]	B	A
Cl.ONc1ccccc1B(O)O [XIII, 2-Hydroxylaminobenzeneboronic Acid Hydrochloride]	C	A
Cl.ONc1ccc(B(O)O)cc1 [XV, 4-Hydroxylaminobenzeneboronic Acid Hydrochloride]	A	A
OB1ON=Cc2ccccc21 [XVIII, 4-Hydroxy-4,3-boroxaroisoquinoline]	B	B
Nc1ccccc1B(O)O [X, 2-Aminobenzeneboronic Acid]	C	A
OB(O)c1cccc(O)c1 [XIX, 3-Hydroxybenzeneboronic Acid]	B	A
NC(=O)Nc1cccc(B(O)O)c1 [XVI, 3-Ureidophenylboric Acid]	C	B
OB1OCc2ccccc21 [XVII, Borphthalide]	C	A
Cl.ONc1cccc(B(O)O)c1 [XIV, 3-Hydroxylaminobenzeneboronic Acid Hydrochloride]	B	B
